Measured values from PubChem BioAssay (NCI).
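1) Cells in 96-well plates. 2) Compound, 48 h, 5 concentrations. 3) Linear interpolation between surrounding doses. 4) Unreached endpoint = highest concentration. Here, GI50 denotes the concentration required for 50% inhibition of growth. TGI is the concentration that stops growth completely.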

Tests used:
Test in all cases: NCI tumour cell line growth inhibition, 48 h
MDA-N = tested on: MDA-N
XF 498 CNS = tested on: XF 498 CNS
KM20L2 colon = tested on: KM20L2 colon
DMS 273 small cell lung = tested on: DMS 273 small cell lung
M19-MEL melanoma = tested on: M19-MEL melanoma
DMS 114 small cell lung = tested on: DMS 114 small cell lung
HOP-18 NSCLC = tested on: HOP-18 NSCLC
LXFL 529 NSCLC = tested on: LXFL 529 NSCLC
P388 leukemia = tested on: P388 leukemia
SN12K1 renal = tested on: SN12K1 renal
P388/ADR leukemia = tested on: P388/ADR leukemia
RXF-631 renal = tested on: RXF-631 renal

Structure (SMILES)	TGI (MDA-N) [µM]	TGI (XF 498 CNS) [µM]	TGI (KM20L2 colon) [µM]	TGI (DMS 273 small cell lung) [µM]	TGI (M19-MEL melanoma) [µM]	TGI (DMS 114 small cell lung) [µM]	TGI (HOP-18 NSCLC) [µM]	TGI (LXFL 529 NSCLC) [µM]	also measured
CC(C)(C)N/N=C(/Cc1nc2c3c(ccc2[nH]c1=O)C(=O)c1ccccc1C3=O)C(=O)NC1=C(Cl)C(=O)c2ccccc2C1=O	28.3	–	–	–	–	–	–	–	–
C=C1C(=O)OC2CC(C)C(/C=C/C(C)=O)=CCC12 (centres undefined)	> 100	–	–	–	–	–	–	–	–
COC(=O)Cc1cc(=O)n2c3ccccc3n(C)c2c1C#N	–	> 100	> 100	> 100	> 100	> 100	–	–	–
COC(=O)C1=NC(=S)NC(c2ccccc2)C1c1nc2ccccc2o1 (centres undefined)	–	> 50	> 50	–	> 50	> 50	> 50	> 50	–
O=c1cc(-c2ccccc2)oc2ccc(Cl)cc12	> 61.1	> 90.5	> 100	> 100	> 100	> 100	> 100	> 100	–
CCCCCCCCCCCCCCCCCc1nc(Cl)nc(Cl)c1Cl	> 100	–	–	–	–	–	–	–	–
COc1cccc(/C=C2\N=C(c3ccccc3)OC2=O)c1	> 100	–	–	–	–	–	–	–	–
CCCCCCCCCCCC/C=C\CC[C@@H](O)[C@H](O)CC[C@H](O)[C@@H]1CC[C@@H](CCCCCCCC2=C[C@H](C)OC2=O)O1	23.4	–	–	–	–	–	–	–	GI50 (MDA-N): 6.76 µM
N#C/C(=C\c1ccc(O)cc1)C(N)=O	–	> 100	> 100	> 100	> 100	> 100	–	> 100	TGI (P388 leukemia): > 100 µM; TGI (SN12K1 renal): > 100 µM; TGI (P388/ADR leukemia): > 100 µM; TGI (RXF-631 renal): > 100 µM
FC(F)(F)c1ccccc1C1SCc2nc3ccccc3n21 (centres undefined)	–	–	–	> 100	> 100	> 100	> 100	> 100	–
O=[N+]([O-])c1cccc(/C=N/Nc2ccc3ccccc3n2)c1O	34.3	–	–	–	–	–	–	–	–
C[N+](C)(C)CC1CCC(C[N+](C)(C)C)C1=NO (centres undefined)	–	> 100	> 100	–	> 100	–	> 100	> 100	–
CC(C)(Oc1ccc(-c2cccc3ccccc23)cc1)C(=O)O	> 100	–	–	–	–	–	–	–	–
COC1C(OC(=O)c2ccc(C)[nH]2)C(O)C(Oc2ccc3c(O)c(NC(=O)c4ccc(O)c(CC=C(C)C)c4)c(=O)oc3c2Cl)OC1(C)C (centres undefined)	> 100	–	–	–	–	–	–	–	–
Cc1cc(N(CCC#N)CCC#N)ccc1/C=C(\NC(=O)/C=C/c1ccccc1)C(=O)Nc1ccccc1Cl	–	–	> 100	> 100	> 100	> 100	–	> 100	–
CC1(C)CC(O)CC(C)(C)N1O	> 100	–	–	–	–	–	–	–	–
O=C(/C=C/c1ccccc1)c1ccc(Cl)cc1Cl	–	–	45.7	34	44.5	33.3	60.5	31.1	TGI (RXF-631 renal): > 100 µM
NNc1c(C(N)=O)c2c(N)ncnc2n1C1OC(CO)C(O)C1O (centres undefined)	0.144	–	–	–	–	–	–	–	–
CCCC1C[C@H]2CCCCN2[C@H]2CCCN12 (some centres undefined)	–	> 100	> 100	> 100	–	> 86.9	> 100	> 100	TGI (RXF-631 renal): > 100 µM
O=C(Nc1ccn(C2CC(O)C(COC(c3ccccc3)(c3ccccc3)c3ccccc3)O2)c(=O)n1)c1ccccc1 (centres undefined)	3.99	–	–	–	–	–	–	–	–
O=C(N/C(=C\c1ccc([N+](=O)[O-])cc1)c1nc2ccccc2s1)c1ccccc1	–	> 100	> 100	> 100	53.9	68.4	61.9	42.9	–
COc1ccc(/C=C/C(=N\NC(=O)c2ccccc2)c2sc(Nc3ccc([N+](=O)[O-])cc3)nc2C)cc1OC	–	29.5	97.6	54.6	70.6	62.7	85	24.3	–
